# Laboratory results as given in patent publication US9981962B2, “Pyrazole derivatives as NIK inhibitors” (Janssen Pharmaceutica NV, priority 2014, dated 2018).
# Experiments:
# [1] = target: T1, Recombinant Human NF-kappaB-Inducing Kinase (NIK/MAP3K14) (Homo sapiens, UniProt Q99558); assay: Biological Assay A2: inhibition of auto-phosphorylation of recombinant human NIK/MAP3K14 (AlphaScreen); type: biochemical; conditions: 0.2 nM GST-tagged NIK, 25 microM ATP, 1 h at 25° C., averaged values
# Protocol: Inhibition of Auto-Phosphorylation of Recombinant Human NF-kappaB-Inducing Kinase (NIK/MAP3K14) Activity (AlphaScreen®)
# NIK/MAP3K14 auto-phosphorylation activity was measured using the AlphaScreen® (αscreen) format (Perkin Elmer). All compounds tested were dissolved in dimethyl sulfoxide (DMSO) and further dilutions were made in assay buffer. Final DMSO concentration was 1% (v/v) in assays. Assay buffer was 50 mM Tris pH 7.5 containing 1 mM EGTA (ethylene glycol tetraacetic acid), 1 mM DTT (dithiothreitol), 0.1 mM Na3VO4, 5 mM MgCl2, 0.01% Tween® 20. Assays were carried out in 384 well Alphaplates (Perkin Elmer). Incubations consisted of compound, 25 microM Adenosine-5′-triphosphate (ATP), and 0.2 nM NIK/MAP3K14. Incubations were initiated by addition of GST-tagged NIK/MAP3K14 enzyme, carried out for 1 h at 25° C. and terminated by addition of stop buffer containing anti-phospho-IKK Ser176/180 antibody. Protein A Acceptor and Glutathione-Donor beads were added before reading using an EnVision® Multilabel Plate Reader (Perkin Elmer). Signal obtained in the wells containing blank samples was subtracted from all other wells and IC50's were determined by fitting a sigmoidal curve to % inhibition of control versus Log10 compound concentration.
# [2] = tested on: P-IKKα levels in L363 cells; assay: Biological Assay B: effect of compounds on P-IKKα levels in L363 cells; type: cell-based; conditions: Homo sapiens, L-363, BAFF stimulated, 2 hr treatment, averaged values, read-out: IKKα Cellular IC50
# Protocol: Effect of Compounds on P-IKKα Levels in L363 Cells
# All compounds tested were dissolved in DMSO and further dilutions were made in culture medium. Final DMSO concentration was 1% (v/v) in cell assays. The human L363 cells (ATCC) were cultured in RPMI 1640 medium supplemented with GlutaMax and 10% fetal calf serum (PAA). Cells were routinely maintained at densities of 0.2×10^6 cells per ml—1×10^6 cells per ml at 37° C. in a humidified 5% CO2 atmosphere. Cells were passaged twice a week splitting back to obtain the low density. Cells were seeded in 96 well plates (Nunc 167008) at 2×10^6 per ml media in a volume of 75 μl per well plus 25 μl 1 μg/ml recombinant human B-cell activating factor (BAFF/BLyS/TNFSF13B). Seeded cells were incubated at 37° C. in a humidified 5% CO2 atmosphere for 24 hr. Drugs and/or solvents were added (20 μl) to a final volume of 120 μl. Following 2 hr treatment plates were removed from the incubator and cell lysis was achieved by the addition of 30 μl 5× lysis buffer followed by shaking on a plate shaker at 4° C. for 10 min. At the end of this incubation lysed cells were centrifuged at 800×g for 20 min at 4° C. and the lysate was assessed for P-IKKα levels by sandwich immuno-assay carried out in anti-rabbit antibody coated Mesoscale plates. Within an experiment, the results for each treatment were the mean of 2 replicate wells. For initial screening purposes, compounds were tested using an 8 point dilution curve (serial 1:3 dilutions). For each experiment, controls (containing MG132 and BAFF but no test drug) and a blank incubation (containing MG132 and BAFF and 10 μM ADS125117, a test concentration known to give full inhibition) were run in parallel. The blank incubation value was subtracted from all control and sample values. To determine the IC50 a sigmoidal curve was fitted to the plot of % inhibition of control P-IKKα levels versus Log10 compound concentration.
# [3] = tested on: JJN-3 cells; assay: Biological Assay C: antiproliferative activity on JJN-3 cells (CellTiter-Glo); type: cell-based, human; conditions: Homo sapiens, JJN-3, 72 h, 72 hr treatment, averaged values
# Protocol: (§1) Determination of Antiproliferative Activity on LP-1, L-363 and JJN-3 Cells
# (§2) All compounds tested were dissolved in DMSO and further dilutions were made in culture medium. Final DMSO concentration was 0.3% (v/v) in cell proliferation assays. Viability was assessed using CellTiter-Glo cell viability assay kit (Promega). The human LP-1, L-363 and JJN-3 cells (DSMZ) were cultured in RPMI 1640 medium supplemented with 2 mM L-glutamine, and 10% fetal calf serum (PAA). Cells were routinely kept as suspension cells at 37° C. in a humidified 5% CO2 atmosphere. Cells were passaged at a seeding density of 0.2×10^6/ml twice a week. Cells were seeded in black tissue culture treated 96-well plates (Perkin Elmer). Densities used for plating ranged from 2,000 to 6,000 cells per well in a total volume of 75 μl medium. After twenty four hours, drugs and/or solvents were added (25 μl) to a final volume of 100 μl. Following 72 hr of treatment plates were removed from the incubator and allowed to equilibrate to room temperature for approx 10 min. 100 ut CellTiter-Glo reagent was added to each well that was then covered (Perkin Elmer Topseal) and shaken on plate shaker for 10 min. Luminescence was measured on a HTS Topcount (Perkin Elmer). Within an experiment, the results for each treatment were the mean of 2 replicate wells. For initial screening purposes, compounds were tested using a 9 point dilution curve (serial 1:3 dilutions). For each experiment, controls (containing no drug) and a blank incubation (containing cells read at the time of compound addition) were run in parallel. The blank value was subtracted from all control and sample values. For each sample, the mean value for cell growth (in relative light units) was expressed as a percentage of the mean value for cell growth of the control.
# [4] = tested on: LP-1 cells; assay: Biological Assay C: antiproliferative activity on LP-1 cells (CellTiter-Glo); type: cell-based, human; conditions: Homo sapiens, LP-1, 72 h, 72 hr treatment, averaged values
# Protocol: as §1, §2
# [5] = target: T1, Recombinant Human NF-kappaB-Inducing Kinase (NIK/MAP3K14); assay: Biological Assay A: inhibition of recombinant human NIK/MAP3K14 activity (MSD, MBP substrate); conditions: 10 nM NIK, 25 μM ATP, 1 h at 25° C.; averaged over all measurements on all batches; read-out: Biochemical (MSD IC50)
# Protocol: Inhibition of Recombinant Human NF-kappaB-Inducing Kinase (NIK/MAP3K14) Activity Assay buffer was 50 mM Tris pH 7.5 containing 1 mM EGTA (ethylene glycol tetraacetic acid), 1 mM DTT (dithiothreitol), 0.1 mM Na3VO4, 5 mM MgCl2, 0.01% Tween® 20. Assays were carried out in 384 well Mesoscale high binding plates which had been coated with myelin basic protein (MBP) and blocked with bovine serum albumin to prevent non-specific protein binding. All compounds tested were dissolved in dimethyl sulfoxide (DMSO) and further dilutions were made in assay buffer. Final DMSO concentration was 1% (v/v) in assays. Incubations consisted of compound (1% DMSO in control and blank wells), 25 μM Adenosine-5′-triphosphate (ATP), and 10 nM NIK/MAP3K14 substituting enzyme with buffer in the blank wells. Incubations were carried out for 1 h at 25° C. and were followed by washing and sequential incubation with rabbit anti-phospho-MBP and anti-rabbit Ig Sulfotag antibody before reading bound Sulfotag on a Mesoscale Discovery. Signal obtained in the wells containing blank samples was subtracted from all other wells and ICso's were determined by fitting a sigmoidal curve to % inhibition of control versus Log10 compound concentration.
# [6] = tested on: L-363 cells; assay: Biological Assay C: antiproliferative activity on L-363 cells (CellTiter-Glo); type: cell-based, human; conditions: Homo sapiens, L-363, 72 h, 72 hr treatment, averaged values
# Protocol: as §1, §2
# T1 sequence (Q99558 whole entry): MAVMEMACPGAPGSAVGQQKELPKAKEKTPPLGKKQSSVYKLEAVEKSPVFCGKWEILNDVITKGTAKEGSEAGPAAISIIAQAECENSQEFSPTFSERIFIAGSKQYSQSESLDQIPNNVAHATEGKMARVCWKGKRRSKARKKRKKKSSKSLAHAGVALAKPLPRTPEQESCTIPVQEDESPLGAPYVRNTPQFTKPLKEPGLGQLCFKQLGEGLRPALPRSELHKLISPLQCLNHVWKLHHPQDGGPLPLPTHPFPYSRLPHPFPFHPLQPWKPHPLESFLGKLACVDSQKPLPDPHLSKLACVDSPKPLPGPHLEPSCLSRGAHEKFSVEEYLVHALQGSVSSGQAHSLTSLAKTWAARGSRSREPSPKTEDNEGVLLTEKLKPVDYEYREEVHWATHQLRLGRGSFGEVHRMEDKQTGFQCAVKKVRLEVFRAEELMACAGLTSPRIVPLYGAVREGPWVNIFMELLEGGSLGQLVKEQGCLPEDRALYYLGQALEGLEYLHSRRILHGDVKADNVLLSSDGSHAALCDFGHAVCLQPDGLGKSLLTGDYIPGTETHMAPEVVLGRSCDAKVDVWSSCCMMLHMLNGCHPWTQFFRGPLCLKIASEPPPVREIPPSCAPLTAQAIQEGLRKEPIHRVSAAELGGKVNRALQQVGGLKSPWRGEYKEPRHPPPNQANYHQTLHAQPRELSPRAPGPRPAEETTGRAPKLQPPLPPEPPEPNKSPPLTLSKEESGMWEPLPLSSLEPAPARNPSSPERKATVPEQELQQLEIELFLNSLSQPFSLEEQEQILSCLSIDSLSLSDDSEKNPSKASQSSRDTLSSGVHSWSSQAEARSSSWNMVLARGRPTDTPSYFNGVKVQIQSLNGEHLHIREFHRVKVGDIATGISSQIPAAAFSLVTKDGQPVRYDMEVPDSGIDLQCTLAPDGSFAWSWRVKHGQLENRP
Structure (SMILES),IC50 [1] [nM],IC50 [2] [nM],EC50 [3] [nM],EC50 [4] [nM],IC50 [5] [nM],EC50 [6] [nM]
Cn1cc(-c2cn[nH]c2)c2cc(C#CC(C)(C)O)ccc21 [Compound 12],65,38,754,769,41,700
CC(C)n1cc(-c2cn[nH]c2)c2cc(C#CC(C)(C)O)ccc21 [Compound 8],14,18,218,219,13,221
CC(C)(O)C#Cc1ccc2[nH]cc(-c3cn[nH]c3)c2c1 [Compound 1],22,122,432,320,28,245
CCn1cc(-c2c[nH]nc2N)c2cc(C#CC(C)(C)O)ccc21 [Compound 2],43,87,733,1420,44,990
CC(C)(O)C#Cc1ccc2c(c1)c(-c1cn[nH]c1)cn2CC1CCOC1 (stereo not drawn) [Compound 5],25,145,1410,1890,38,1830
CC(C)(O)C#Cc1ccc2c(c1)c(-c1cn[nH]c1)cn2CC1COC1 [Compound 6],66,73,1080,1950,6,704
OC1(C#Cc2ccc3[nH]cc(-c4cn[nH]c4)c3c2)CCCC1 [Compound 14],28,300,2200,5440,30,4050
CC(C)(O)C#Cc1ccc2c(c1)c(-c1cn[nH]c1)cn2CC(C)(C)O [Compound 10],110,111,723,947,38,759
CC(C)(O)C#Cc1ccc2c(c1)c(-c1cn[nH]c1)cn2CCO [Compound 11],65,83,394,483,16,340
CCn1cc(-c2cn[nH]c2)c2cc(C#CC(C)(C)O)ccc21 [Compound 9],43,54,418,298,8,332
CCn1cc(-c2c[nH]nc2C)c2cc(C#CC(C)(C)O)ccc21 [Compound 3],35,139,1860,3160,71,3120
